Source: patent US12338238B2, “Inhibitors of SARM1” (Disarm Therapeutics, Inc., priority 2018, dated 2025)

Assays:
SARM1 SAM-TIR = SARM1 SAM-TIR (Homo sapiens (Human), UniProt Q6SZW1); assay: biochemical; type: biochemical; settings: SAM-TIR lysate 5 μg/mL, 2 hr pre-incubation, 5 μM NAD+, RapidFire MS
[1] = system: mouse dorsal root ganglion (DRG) axons; assay: Axon degeneration assay in mouse DRG drop culture; type: cell-based; settings: protection of axon fragmentation, axonal transection or chemotoxic stimuli
Protocol: This Example illustrates an in vitro axon degeneration assay used to characterize compounds of Formula I. This assay is used to test the efficacy of the compounds of Formula I to prevent axonal degeneration in a mouse dorsal root ganglion (DRG) drop culture.
Mouse dorsal root ganglion neurons (DRGs) were dissected out of E12.5 CD1 mice (50 ganglion per embryo) and incubated with 0.5% Trypsin solution containing 0.02% EDTA (Gibco) at 37° C. for 15 min. The cells were then triturated by gentle pipetting and washed 3 times with DRG growth medium (Neurobasal medium (Gibco) containing 2% B27 (Invitrogen), 100 ng/ml 2.5S NGF (Harland Bioproducts), […] 5-fluoro-2′deoxyuridine (Sigma), penicillin, and streptomycin). Cells were suspended in the DRG growth medium. DRG drop cultures were created by spotting 5000 cells/well into the center of each well of a 96-well tissue culture plate coated with poly-D-Lysine (0.1 mg/ml; Sigma) and laminin ([…]; Invitrogen). Cells were allowed to adhere to the plates in a humidified tissue culture incubator (5% CO2) for 15 min and then DRG growth medium was gently added ([…]).
Axonal degeneration was stimulated either by manual axonal transection using a scalpel blade, or chemotoxic stimuli. After an appropriate experimental time period, the DRG cultures were fixed in 1% PFA plus sucrose and kept in the fridge prior to imaging. Bright-field images of DRG axons and cell bodies were collected using the 20x water immersion lens of a Phenix automated confocal microscope (PerkinElmer) and quantitation of axonal performed using in-house developed scripts (Acapella, PerkinElmer).

Sequence of SARM1 SAM-TIR (Q6SZW1 409-724): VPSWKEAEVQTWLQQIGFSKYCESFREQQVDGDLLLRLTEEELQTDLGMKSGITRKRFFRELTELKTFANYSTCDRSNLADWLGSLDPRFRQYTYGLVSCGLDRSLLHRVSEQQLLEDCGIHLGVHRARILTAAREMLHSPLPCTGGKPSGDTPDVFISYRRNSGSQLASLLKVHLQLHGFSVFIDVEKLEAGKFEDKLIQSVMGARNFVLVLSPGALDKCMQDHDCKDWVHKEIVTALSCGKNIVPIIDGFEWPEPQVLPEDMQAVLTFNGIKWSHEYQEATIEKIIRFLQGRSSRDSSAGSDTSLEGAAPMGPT

| SMILES | IC50 (SARM1 SAM-TIR) | IC50 [1] |
| --- | --- | --- |
| CC(C)c1c[nH]c(=O)c2cnccc12 [Example 22] | 5 to 15 µM | – |
| COc1cc(Br)c2ccncc2n1 [Example 69] | < 5 µM | – |
| Fc1cc(Cl)c2ccncc2c1 [Example 30] | < 5 µM | – |
| Oc1cccc2ccncc12 [Example 11] | < 5 µM | – |
| CC(C)(O)c1cccc2cnccc12 [Example 82] | > 30 µM | – |
| CC(C)Oc1cccc2cnccc12 [Example 25] | > 30 µM | – |
| O=c1[nH]ccc2ccc(O)cc12 [Example 39] | > 30 µM | – |
| O=[N+]([O-])c1cccc2cnccc12 [Example 47] | 5 to 15 µM | – |
| COc1cccc2cnncc12 [Example 73] | 5 to 15 µM | – |
| Clc1ncc(Br)c2ccncc12 [Example 81] | > 30 µM | – |
| Oc1cc2c(Br)cccc2cn1 [Example 14] | > 30 µM | – |
| Nc1ccc(O)c2cnccc12 [Example 62] | < 5 µM | – |
| Brc1ccc2cnncc2c1 [Example 16] | > 30 µM | – |
| O=c1[nH]cc(I)c2ccncc12 [Example 3] | < 5 µM | – |
| Clc1ccc(Br)c2cnccc12 [Example 34] | 15 to 30 µM | – |
| O=c1[nH]cc([N+](=O)[O-])c2ccncc12 [Example 80] | > 30 µM | – |
| C#Cc1cccc2cnccc12 [Example 85] | < 5 µM | – |
| c1cc(C2CC2)c2ccncc2c1 [Example 19] | 5 to 15 µM | – |
| O=c1[nH]cc(Br)c2ccncc12 [Example 4] | < 5 µM | – |
| COC(=O)c1cccc2cnccc12 [Example 51] | > 30 µM | – |
| Cc1cc2c(N)cccc2cn1 [Example 58] | 5 to 15 µM | – |

| SMILES | IC50 (SARM1 SAM-TIR) | IC50 [1] |
| --- | --- | --- |
| Nc1cccc2cnncc12 [Example 37] | 15 to 30 µM | – |
| Brc1ccnc2cnccc12 [Example 67] | < 5 µM | – |
| O=c1[nH]cc(Br)c2cc[n+]([O-])cc12 [Example 83] | > 30 µM | – |
| CCn1cc(Br)c2ccncc2c1=O [Example 20] | 5 to 15 µM | – |
| COc1cc2cc[nH]c(=O)c2cc1F [Example 40] | > 30 µM | – |
| NCc1cccc2cnccc12 [Example 50] | 15 to 30 µM | – |
| O=c1[nH]ncc2ccc(F)cc12 [Example 7] | > 30 µM | – |
| Cn1cc(Br)c2ccncc2c1=O [Example 66] | < 5 µM | – |
| COc1cccc2cnccc12 [Example 49] | 5 to 15 µM | – |
| Nc1nccc2c(I)cccc12 [Example 18] | < 5 µM | – |
| Oc1ccc(Br)c2ccncc12 [Example 65] | < 5 µM | – |
| c1ccc2cnccc2c1 [Example 48] | 5 to 15 µM | – |
| CC(=O)c1cccc2cnccc12 [Example 79] | 15 to 30 µM | – |
| O=C(O)c1ccnc2cnccc12 [Example 54] | 15 to 30 µM | – |
| Nc1cccc2cncc(Br)c12 [Example 35] | 15 to 30 µM | – |
| c1ccc2nnccc2c1 [Example 43] | < 5 µM | – |
| Ic1cccc2cnncc12 [Example 64] | < 5 µM | – |
| Clc1ccnc2cnccc12 [Example 41] | < 5 µM | – |
| Nc1nccc2ccncc12 [Example 38] | > 30 µM | – |
| Nc1nccc2c(C3CC3)cccc12 [Example 84] | > 30 µM | – |
| O=c1[nH]ccc2c(Br)cccc12 [Example 33] | 5 to 15 µM | – |

| SMILES | IC50 (SARM1 SAM-TIR) | IC50 [1] |
| --- | --- | --- |
| Nc1ccc(Br)c2ccncc12 [Example 12] | < 5 µM | – |
| O=c1[nH]cnc2ccncc12 [Example 78] | 15 to 30 µM | – |
| OCc1cccc2cnccc12 [Example 45] | < 5 µM | – |
| Nc1c[nH]c(=O)c2cnccc12 [Example 75] | 15 to 30 µM | – |
| Nc1ccc2cnccc2c1Cl [Example 9] | 15 to 30 µM | – |
| Nc1ccc(Cl)c2ccncc12 [Example 32] | < 5 µM | – |
| Clc1ccc(Cl)c2cnccc12 [Example 57] | 5 to 15 µM | – |
| Oc1cncc2ccccc12 [Example 59] | 15 to 30 µM | – |
| Brc1cncc2cnccc12 [Example 70] | < 5 µM | – |
| Cc1nccc2c(Br)cccc12 [Example 53] | > 30 µM | – |
| Brc1cccc2cnccc12 [Example 8] | < 5 µM | < 10 µM |
| Nc1cccc2c(Br)cncc12 [Example 52] | > 30 µM | – |
| COc1cccc2ccncc12 [Example 56] | < 5 µM | – |
| Cc1nccc2c(Br)c[nH]c(=O)c12 [Example 76] | 15 to 30 µM | – |
| Nc1ncc(Br)c2ccncc12 [Example 46] | < 5 µM | – |
| Nc1nccc2c(Br)cccc12 [Example 55] | < 5 µM | – |
| COc1ncc(Br)c2ccncc12 [Example 21] | 5 to 15 µM | – |
| Ic1cccc2cnccc12 [Example 26] | – | < 10 µM |
| COc1c[nH]c(=O)c2cnccc12 [Example 28] | > 30 µM | – |
| CN(C)c1nccc2c(Br)cccc12 [Example 23] | > 30 µM | – |
| COc1ncc(C2CC2)c2ccncc12 [Example 24] | > 30 µM | – |

| SMILES | IC50 (SARM1 SAM-TIR) | IC50 [1] |
| --- | --- | --- |
| CNc1ncc(Br)c2ccncc12 [Example 68] | < 5 µM | – |
| Nc1cncc2ccccc12 [Example 63] | 5 to 15 µM | – |
| CNC(=O)Nc1ncc(Br)c2ccncc12 [Example 72] | 5 to 15 µM | – |
| O=c1[nH]ccc2ccncc12 [Example 5] | < 5 µM | – |
| Brc1cccc2cnncc12 [Example 10] | < 5 µM | – |
| Clc1cccc2cnccc12 [Example 42] | < 5 µM | 10 to 30 µM |
| c1cc2ccncc2cn1 [Example 36] | 15 to 30 µM | – |
| CNc1nccc2c(Br)cccc12 [Example 27] | > 30 µM | – |
| Brc1cccc2cncnc12 [Example 60] | > 30 µM | – |
| Nc1ccnc2cnccc12 [Example 71] | 5 to 15 µM | – |
| O=S(=O)(Nc1nccc2c(Br)cccc12)C1CC1 [Example 77] | 15 to 30 µM | – |
| Brc1cncc2ccccc12 [Example 2] | 15 to 30 µM | – |
| FC(F)(F)c1cccc2cnccc12 [Example 61] | > 30 µM | – |
| O=c1cc(Br)c2ccncc2[nH]1 [Example 29] | < 5 µM | – |
| COc1ccc(Br)c2ccncc12 [Example 15] | < 5 µM | – |
| CSc1cccc2cnccc12 [Example 74] | 5 to 15 µM | – |
| Cc1cncc2ccccc12 [Example 17] | 5 to 15 µM | – |
| Oc1cccc2cnccc12 [Example 44] | < 5 µM | – |
| Cc1cncc2cccc(Br)c12 [Example 13] | 5 to 15 µM | – |
